Where a name gives a salt, the structure may show the parent alone.

The subject of data set [1] is tumor necrosis factor (α). Nature of the data set: Cytokine Induction in Human Cells: tumor necrosis factor (α) secreted by PBMCs, ELISA. The format is cell-based. Further details: key to Lowest Effective Concentration (μM) Tumor Necrosis Factor: A “*” indicates that no induction was seen at any of the tested concentrations; generally the highest tested concentration was 10 or 30 μM. As to conditions: incubated 18 to 24 hours, lowest concentration found to induce tumor necrosis factor; for minimal effective concentration: PBMC. The source says: (§1) An in vitro human blood cell system is used to assess cytokine induction. Activity is based on the measurement of interferon and tumor necrosis factor (α) (IFN and TNF, respectively) secreted into culture media as described by Testerman et. al. In “Cytokine Induction by the Immunomodulators Imiquimod and S-27609”, Journal of Leukocyte Biology, 58, 365-372 (September, 1995).
(§2) Whole blood from healthy human donors is collected by venipuncture into EDTA vacutainer tubes. Peripheral blood mononuclear cells (PBMCs) are separated from whole blood by density gradient centrifugation using Histopaque®-1077. The PBMCs are washed twice with Hank's Balanced Salts Solution and then are suspended at 3-4×10^6 cells/mL in RPMI complete. The PBMC suspension is added to 48 well flat bottom sterile tissue culture plates (Costar, Cambridge, Mass. or Becton Dickinson Labware, Lincoln Park, N.J.) containing an equal volume of RPMI complete media containing test compound.
(§3) The compounds are solubilized in dimethyl sulfoxide (DMSO). The DMSO concentration should not exceed a final concentration of 1% for addition to the culture wells
(§4) The solution of test compound is added at 60 μM to the first well containing RPMI complete and serial 3 fold dilutions are made in the wells. The PBMC suspension is then added to the wells in an equal volume, bringing the test compound concentrations to the desired range (0.12 to 30 μM). The final concentration of PBMC suspension is 1.5-2×10^6 cells/mL. The plates are covered with sterile plastic lids, mixed gently and then incubated for 18 to 24 hours at 37° C. in a 5% carbon dioxide atmosphere.
(§5) Following incubation the plates are centrifuged for 5-10 minutes at 1000 rpm (˜200×g) at 4° C. The cell-free culture supernatant is removed with a sterile polypropylene pipet and transferred to sterile polypropylene tubes. Samples are maintained at −30 to −70° C. until analysis. The samples are analyzed for interferon (α) and for tumor necrosis factor (α) by ELISA.
Tumor necrosis factor (α) (TNF)concentration is determined using ELISA kits available from Genzyme, Cambridge, Mass.; R&D Systems, Minneapolis, Minn.; or Pharmingen, San Diego, Calif. Results are expressed in pg/mL.
(§6) The table below lists the lowest concentration found to induce interferon and the lowest concentration found to induce tumor necrosis factor for each compound.
On the technique in general: An ELISA detects its analyte on a solid surface through an enzyme-linked reagent.

A further data set deals with interferon (α). As to the kind of experiment: Cytokine Induction in Human Cells: interferon (α) secreted by PBMCs, ELISA. In kind it is cell-based. The following applies: PBMC, incubated 18 to 24 hours, lowest concentration found to induce interferon.
Text: as §1, §2, §3, §4, §5
Interferon (α) concentration is determined by ELISA using a Human Multi-Species kit from PBL Biomedical Laboratories, New Brunswick, N.J. Results are expressed in pg/mL.
as §6

The term melting point denotes the temperature of the solid-liquid transition. As for `Nc1nc2ccccc2c2c1ncn2CCOCC#Cc1ccccn1` (as salt: trifluoroacetate) [Example 21, 1-(2-{[3-(Pyrid-2-yl)-2-propynyl]oxy}ethyl)-1H-imidazo[4,5-c]quinolin-4-amine trifluoroacetate], the melting point is 129 to 131 °C.

In general, minimal effective concentration refers to the lowest level tested that produced the effect sought. With `Nc1nc2ccccc2c2c1ncn2CCOCC#Cc1nccs1` [Example 2, 1-(2-{[3-(1,3-Thiazol-2-yl)-2-propynyl]oxy}ethyl)-1H-imidazo[4,5-c]quinolin-4-amine], the melting point lay in the range of 157 to 159 °C. The minimal effective concentration in data set [1] was 10 µM. For the same molecule, in the data set with interferon (α), the minimal effective concentration came to 0.37 µM.

`Nc1nc2ccccc2c2c1ncn2CCOCCCc1ncccn1` [Example 4, 1-[2-(3-Pyrimidin-2-ylpropoxy)ethyl]-1H-imidazo[4,5-c]quinolin-4-amine] showed a melting point of 126 to 127 °C. Also, the “Lowest Effective Concentration (μM) Tumor Necrosis Factor” value in data set [1] is given as “*”. In the data set on interferon (α), this molecule had a minimal effective concentration of 3.33 µM.

With `Nc1nc2ccccc2c2c1ncn2CCOCCCc1ccncc1` [Example 5, 1-[2-(3-Pyridin-4-ylpropoxy)ethyl]-1H-imidazo[4,5-c]quinolin-4-amine], the melting point was in the range of 160 to 162 °C. For the same molecule, the minimal effective concentration in data set [1] amounted to 0.37 µM. This molecule registered a minimal effective concentration in the data set on interferon (α) of 0.04 µM.

Take `Nc1nc2ccccc2c2c1ncn2CCOCCCc1ccccn1` [Example 6, 1-[2-(3-Pyridin-2-ylpropoxy)ethyl]-1H-imidazo[4,5-c]quinolin-4-amine]: the melting point lay within 138 to 140 °C. Further, the minimal effective concentration in data set [1] came to 1.11 µM. Moreover, in the data set with interferon (α), the minimal effective concentration was determined as 0.12 µM.

`Nc1nc2ccccc2c2c1ncn2CCOCCCc1nccs1` [Example 7, 1-{2-[3-(1,3-Thiazol-2-yl)propoxy]ethyl}-1H-imidazo[4,5-c]quinolin-4-amine] registered a melting point of 134 to 135 °C. The “Lowest Effective Concentration (μM) Tumor Necrosis Factor” value in data set [1] was “*”. The minimal effective concentration with interferon (α) was found to be 0.37 µM.

In turn, `Nc1nc2ccccc2c2c1ncn2CCOCc1cn(CSc2ccccc2)nn1` [Example 11, 1-[2-({1-[(Phenylsulfanyl)methyl]-1H-1,2,3-triazol-4-yl}methoxy)ethyl]-1H-imidazo[4,5-c]quinoline-4-amine] registered a melting point of 182 to 184 °C. The same molecule had a minimal effective concentration in data set [1] of 0.04 µM. Besides, in the data set with interferon (α), the minimal effective concentration came out at 1.11 µM.

Regarding `Nc1nc2ccccc2c2c1ncn2CCOCc1ccccn1` [Example 14, 1-[2-(Pyridin-2-ylmethoxy)ethyl]-1H-imidazo[4,5-c]quinolin-4-amine], the melting point was in the range of 196 to 198 °C. Besides, the minimal effective concentration in data set [1] is 0.37 µM. Moreover, in the data set with interferon (α), the minimal effective concentration worked out at 0.12 µM.

With `Nc1nc2ccccc2c2c1ncn2CCOCc1ccncc1` [Example 15, 1-[2-(Pyridin-4-ylmethoxy)ethyl]-1H-imidazo[4,5-c]quinolin-4-amine], the melting point lay in the range of 159 to 161 °C. In data set [1], this molecule registered a minimal effective concentration of 3.33 µM. Further, the minimal effective concentration in the data set with interferon (α) amounted to 1.11 µM.

Regarding `Cc1noc(C)c1COCCn1cnc2c(N)nc3ccccc3c21` [Example 16, 1-{2-[(3,5-Dimethylisoxazol-4-yl)methoxy]ethyl}-1H-imidazo[4,5-c]quinolin-4-amine], the melting point is 213 to 215 °C. This molecule returned a minimal effective concentration in data set [1] of 10 µM. The molecule also gave a minimal effective concentration in the data set on interferon (α) of 3.33 µM.

Turning to `Nc1nc2ccccc2c2c1ncn2CCOCC#Cc1cccs1` [Example 30, 1-{2-[(3-thien-2-ylprop-2-ynyl)oxy]ethyl}-1H-imidazo[4,5-c]quinolin-4-amine], the melting point is 148 to 150 °C. In data set [1], the minimal effective concentration came out at 3.33 µM. Further, in the data set on interferon (α), the minimal effective concentration came out at 0.37 µM.

With `Cc1nc2c(N)nc3c(c2n1CCOCCCc1cccnc1)CCCC3` [Example 37, 2-methyl-1-[2-(3-pyridin-3-ylpropoxy)ethyl]-6,7,8,9-tetrahydro-1H-imidazo[4,5-c]quinolin-4-amine], the melting point was in the range of 140 to 141 °C.

The values are drawn from patent publication US6664260B2, “Heterocyclic ether substituted imidazoquinolines” (3M Innovative Properties Company, priority 2000, dated 2003).
